From ChEMBL document CHEMBL3045259, “Synthesis, molecular docking studies, and in vitro screening of sulfanilamide-thiourea hybrids as antimicrobial and urease inhibitors” (Med Chem Res, 2013) come the findings set out here.

The structures appear in SMILES notation. Values after ≈ are worked out from the molar mass of the structure shown. Active and inactive are the calls of the source. No cut-off for these calls is given here.

For one experiment, the system named is Staphylococcus aureus. The experiment is described as follows: Antibacterial activity against Staphylococcus aureus assessed as growth inhibition after 24 hr by NCCLS broth micro-dilution method. Type of experiment: functional.
For another experiment, the system named is Aspergillus niger. Put plainly: Antifungal activity against Aspergillus niger assessed as inhibition of fungal hyphae extension after 24 to 48 hr by agar well diffusion method. The experiment is classed as functional.
In the next experiment the test system is Bacillus subtilis. Put plainly: Antibacterial activity against Bacillus subtilis assessed as growth inhibition after 24 hr by NCCLS broth micro-dilution method. Type of experiment: functional. A general note: Broth dilution looks for growth in wells or tubes with falling amounts of substance.
The next experiment has as its system Shigella flexneri. Put plainly: Antibacterial activity against Shigella flexneri assessed as growth inhibition after 24 hr by NCCLS broth micro-dilution method. Type of experiment: functional.
For the next experiment, the system named is Aspergillus flavus. Put plainly: Antifungal activity against Aspergillus flavus assessed as inhibition of fungal hyphae extension after 24 to 48 hr by agar well diffusion method. The experiment is classed as functional. (A growth-free zone around the sample is the usual read-out of agar diffusion tests.)
The next experiment concerns the target Urease (Canavalia ensiformis, UniProt P07374). The experiment is described as follows: (§1) Inhibition of Canavalia ensiformis (jack bean) urease assessed as release of ammonia after 30 min by indophenol method.
The subject of a further experiment is Aspergillus. Put plainly: Antifungal activity against Aspergillus […] assessed as inhibition of fungal hyphae extension after 24 to 48 hr by agar well diffusion method. Type of experiment: functional.
For the next experiment, the system named is Escherichia coli. The experiment is described as follows: Antibacterial activity against Escherichia coli assessed as growth inhibition after 24 hr by NCCLS broth micro-dilution method. Type of experiment: functional.
The target in experiment [1] is Urease (Canavalia ensiformis) (UniProt P07374). Put plainly: Ratio of thiourea Ki to compound Ki for Canavalia ensiformis (jack bean) urease.
The target is the same in experiment [2]. The experiment is described as §1.

Urease, sequence (P07374 whole entry, the tested form may be a part): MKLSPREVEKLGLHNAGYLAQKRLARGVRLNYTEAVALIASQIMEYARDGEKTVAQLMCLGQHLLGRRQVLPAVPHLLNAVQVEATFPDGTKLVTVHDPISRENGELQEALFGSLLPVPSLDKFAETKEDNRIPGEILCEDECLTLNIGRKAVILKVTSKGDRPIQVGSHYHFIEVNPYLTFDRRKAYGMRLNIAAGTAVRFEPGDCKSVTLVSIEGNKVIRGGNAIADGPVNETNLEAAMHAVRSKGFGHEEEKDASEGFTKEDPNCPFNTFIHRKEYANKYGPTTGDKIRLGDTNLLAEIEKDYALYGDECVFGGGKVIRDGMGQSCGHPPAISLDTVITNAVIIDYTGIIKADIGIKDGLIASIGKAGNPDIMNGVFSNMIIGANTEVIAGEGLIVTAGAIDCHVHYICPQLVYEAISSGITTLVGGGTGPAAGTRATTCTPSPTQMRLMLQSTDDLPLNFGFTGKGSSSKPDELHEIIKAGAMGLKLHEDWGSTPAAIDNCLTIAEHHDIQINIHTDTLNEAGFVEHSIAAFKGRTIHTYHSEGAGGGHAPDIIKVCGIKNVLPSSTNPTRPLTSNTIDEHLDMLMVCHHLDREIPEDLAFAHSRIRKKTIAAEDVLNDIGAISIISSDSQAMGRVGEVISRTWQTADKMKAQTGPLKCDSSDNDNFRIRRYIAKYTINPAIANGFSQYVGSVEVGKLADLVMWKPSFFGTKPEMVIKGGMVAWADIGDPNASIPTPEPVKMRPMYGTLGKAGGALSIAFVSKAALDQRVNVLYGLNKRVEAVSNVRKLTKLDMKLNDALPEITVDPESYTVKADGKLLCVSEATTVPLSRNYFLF
Urease (Canavalia ensiformis), sequence (P07374 whole entry, looked up): as the sequence (P07374 whole entry, the tested form may be a part) above

As for `COc1cccc(C(=O)NC(=S)Nc2ccc(S(N)(=O)=O)cc2)c1OC`, the MIC (in general, the lowest concentration that inhibits growth of the organism) in the experiment with Staphylococcus aureus stood at 0.313 µg/mL (≈ 0.791 µM); in the experiment with Bacillus subtilis it was 0.313 µg/mL (≈ 0.791 µM); in the experiment with Shigella flexneri, 0.156 µg/mL (≈ 0.394 µM); in the experiment with Escherichia coli, 0.313 µg/mL (≈ 0.791 µM). Further, the inhibition result in the experiment on Aspergillus niger and in the experiment with Aspergillus flavus was “inactive” throughout. Moreover, at Urease, the inhibitory constant (Ki) (as a rule, a measure of affinity in units of concentration, obtained from inhibition or displacement) was 820 nM. The “inhibition zone (IZ)” value in the experiment with Aspergillus was 0.9 mm.
For the compound `Cc1cccc(C(=O)NC(=S)Nc2ccc(S(N)(=O)=O)cc2)c1`, the MIC in the experiment on Staphylococcus aureus was determined as 0.625 µg/mL (≈ 1.79 µM); in the experiment with Bacillus subtilis it was 0.313 µg/mL (≈ 0.896 µM); in the experiment on Shigella flexneri, 0.313 µg/mL (≈ 0.896 µM); in the experiment with Escherichia coli, 1.25 µg/mL (≈ 3.58 µM). For the same compound, the inhibition constant (Ki) on Urease is 890 nM.
As to `NS(=O)(=O)c1ccc(NC(=S)NC(=O)c2ccc(Cl)cc2)cc1`, the Ratio Ki in [1] is 100. The minimal inhibitory concentration (MIC) is 0.156 µg/mL (≈ 0.422 µM) with Staphylococcus aureus, 0.156 µg/mL (≈ 0.422 µM) in the experiment on Bacillus subtilis, 0.313 µg/mL (≈ 0.846 µM) in the experiment with Shigella flexneri and 0.313 µg/mL (≈ 0.846 µM) in the experiment on Escherichia coli. Moreover, at Urease, the Ki is 200 nM.
Regarding `NS(=O)(=O)c1ccc(NC(=S)NC(=O)c2ccc(Cl)cc2Cl)cc1`, the MIC in the experiment on Staphylococcus aureus, with Bacillus subtilis, with Shigella flexneri and in the experiment with Escherichia coli was 0.313 µg/mL (≈ 0.774 µM) each time. For the same compound, in the experiment on Aspergillus niger, the “inhibition zone (IZ)” value is given as 0.8 mm. For the same compound, the inhibition entry in the experiment on Aspergillus flavus and in the experiment with Aspergillus was “inactive” in each case. Besides, the inhibition constant Ki on Urease came out at 1910 nM.
With `COc1ccc(C(=O)NC(=S)Nc2ccc(S(N)(=O)=O)cc2)c(OC)c1OC`, the minimal inhibitory concentration (MIC) in the experiment on Staphylococcus aureus was found to be 0.156 µg/mL (≈ 0.367 µM); in the experiment on Bacillus subtilis, 0.156 µg/mL (≈ 0.367 µM); in the experiment on Shigella flexneri it was 0.313 µg/mL (≈ 0.736 µM); with Escherichia coli it was 0.313 µg/mL (≈ 0.736 µM). The inhibitory constant (Ki) on Urease was 1340 nM.
Regarding `CCC(CC(=O)NC(=S)Nc1ccc(S(N)(=O)=O)cc1)c1ccccc1` (stereo not drawn), the MIC in the experiment on Staphylococcus aureus came to 0.625 µg/mL (≈ 1.6 µM); with Bacillus subtilis, 0.313 µg/mL (≈ 0.799 µM); with Shigella flexneri, 0.313 µg/mL (≈ 0.799 µM); with Escherichia coli, 1.25 µg/mL (≈ 3.19 µM). For the same compound, the inhibition constant Ki at Urease worked out at 1230 nM.
Take `CN(C/C=C/C#CC(C)(C)C)Cc1cccc2ccccc12` [TERBINAFINE]: the “inhibition zone (IZ)” value in the experiment with Aspergillus niger is 5.3 mm; with Aspergillus flavus it was 5.7 mm; in the experiment with Aspergillus, 5.2 mm.
Take `O=C(O)c1cn(C2CC2)c2cc(N3CCNCC3)c(F)cc2c1=O` [CIPROFLOXACIN]: the MIC in the experiment with Staphylococcus aureus worked out at 0.156 µg/mL (≈ 0.471 µM); with Bacillus subtilis, 0.625 µg/mL (≈ 1.89 µM); in the experiment on Shigella flexneri, 0.313 µg/mL (≈ 0.945 µM); in the experiment on Escherichia coli, 0.156 µg/mL (≈ 0.471 µM).
As to `NS(=O)(=O)c1ccc(NC(=S)NC(=O)c2ccco2)cc1`, the MIC in the experiment on Staphylococcus aureus worked out at 0.625 µg/mL (≈ 1.92 µM); in the experiment on Bacillus subtilis, 0.625 µg/mL (≈ 1.92 µM); in the experiment with Shigella flexneri, 0.313 µg/mL (≈ 0.962 µM); in the experiment on Escherichia coli it was 0.313 µg/mL (≈ 0.962 µM). Also, the Ki on Urease came out at 1140 nM.
Regarding `Cc1ccccc1C(=O)NC(=S)Nc1ccc(S(N)(=O)=O)cc1`, the minimum inhibitory concentration (MIC) was 0.625 µg/mL (≈ 1.79 µM) in the experiment on Staphylococcus aureus, 0.625 µg/mL (≈ 1.79 µM) in the experiment with Bacillus subtilis, 0.313 µg/mL (≈ 0.896 µM) in the experiment on Shigella flexneri and 0.313 µg/mL (≈ 0.896 µM) in the experiment on Escherichia coli. Moreover, the inhibition (in general, how much of the control response was suppressed) in experiment [2] is 53%.
In the case of `NC(N)=S` [THIOUREA], the inhibition constant (Ki) at Urease was 23000 nM.
Turning to `CCCCCCCCCCCC(=O)NC(=S)Nc1ccc(S(N)(=O)=O)cc1`, the minimum inhibitory concentration (MIC) in the experiment with Staphylococcus aureus, with Bacillus subtilis, in the experiment with Shigella flexneri and in the experiment on Escherichia coli was 0.313 µg/mL (≈ 0.757 µM) throughout. For the same compound, the figures for the “inhibition zone (IZ)” value in the experiment with Aspergillus niger, in the experiment on Aspergillus flavus and in the experiment on Aspergillus were 4.6 mm, 5.1 mm and 4.9 mm, respectively. Also, the Ki at Urease turned out to be 1300 nM.
On to `NS(=O)(=O)c1ccc(NC(=S)NC(=O)c2cccc([N+](=O)[O-])c2)cc1`, for which the minimal inhibitory concentration (MIC) with Staphylococcus aureus, in the experiment with Bacillus subtilis, in the experiment on Shigella flexneri and in the experiment on Escherichia coli was 0.313 µg/mL (≈ 0.823 µM) each time. In addition, the Ki at Urease was found to be 450 nM.
For the compound `Cc1ccc(C(=O)NC(=S)Nc2ccc(S(N)(=O)=O)cc2)cc1`, the minimum inhibitory concentration (MIC) amounted to 0.313 µg/mL (≈ 0.896 µM) with Staphylococcus aureus, 0.313 µg/mL (≈ 0.896 µM) in the experiment on Bacillus subtilis, 0.156 µg/mL (≈ 0.446 µM) in the experiment on Shigella flexneri and 0.313 µg/mL (≈ 0.896 µM) in the experiment on Escherichia coli. Also, on Urease, the Ki came out at 4320 nM.
On to `NS(=O)(=O)c1ccc(NC(=S)NC(=O)c2cccc(Cl)c2)cc1`, for which the MIC with Staphylococcus aureus, in the experiment with Bacillus subtilis, in the experiment with Shigella flexneri and in the experiment on Escherichia coli was 0.156 µg/mL (≈ 0.422 µM) each time. The Ki at Urease is 1500 nM.
In the case of `NS(=O)(=O)c1ccc(NC(=S)NC(=O)Cc2ccccc2)cc1`, the MIC with Staphylococcus aureus, in the experiment with Bacillus subtilis, in the experiment with Shigella flexneri and in the experiment on Escherichia coli was 0.313 µg/mL (≈ 0.896 µM) in each case. For the same compound, the Ki at Urease was 1600 nM.
For `COc1cccc(C(=O)NC(=S)Nc2ccc(S(N)(=O)=O)cc2)c1`, the minimum inhibitory concentration (MIC) in the experiment on Staphylococcus aureus, with Bacillus subtilis, in the experiment on Shigella flexneri and in the experiment on Escherichia coli was 0.313 µg/mL (≈ 0.857 µM) in each case. At Urease, the inhibitory constant (Ki) stood at 650 nM.
Take `NS(=O)(=O)c1ccc(NC(=S)NC(=O)c2cccc(F)c2)cc1`: the MIC with Staphylococcus aureus was 0.313 µg/mL (≈ 0.886 µM); with Bacillus subtilis, 0.313 µg/mL (≈ 0.886 µM); with Shigella flexneri, 0.156 µg/mL (≈ 0.441 µM); with Escherichia coli it was 0.313 µg/mL (≈ 0.886 µM). Also, the “inhibition zone (IZ)” value in the experiment on Aspergillus niger is 2.4 mm; in the experiment with Aspergillus flavus, 2.8 mm. Besides, the inhibitory constant (Ki) at Urease came out at 1490 nM. In the experiment with Aspergillus, the inhibition result was “inactive”.
As for `COc1cc(OC)cc(C(=O)NC(=S)Nc2ccc(S(N)(=O)=O)cc2)c1`, the MIC with Staphylococcus aureus, in the experiment with Bacillus subtilis, in the experiment on Shigella flexneri and in the experiment on Escherichia coli was 0.313 µg/mL (≈ 0.791 µM) each time. Moreover, the “inhibition zone (IZ)” value was 1.5 mm in the experiment with Aspergillus niger, 1.9 mm with Aspergillus flavus and 2.7 mm in the experiment with Aspergillus. In addition, the inhibition constant (Ki) on Urease came out at 1210 nM.
`NS(=O)(=O)c1ccc(NC(=S)NC(=O)c2ccc([N+](=O)[O-])cc2)cc1`: the MIC in the experiment with Staphylococcus aureus stood at 0.156 µg/mL (≈ 0.41 µM); with Bacillus subtilis it was 0.156 µg/mL (≈ 0.41 µM); in the experiment on Shigella flexneri it was 0.313 µg/mL (≈ 0.823 µM); in the experiment on Escherichia coli it was 0.313 µg/mL (≈ 0.823 µM). Besides, the Ki on Urease stood at 7500 nM.
`NS(=O)(=O)c1ccc(NC(=S)NC(=O)c2cc([N+](=O)[O-])ccc2Cl)cc1`: the Ratio Ki in [1] is 50. For the same compound, the MIC in the experiment with Staphylococcus aureus is 0.156 µg/mL (≈ 0.376 µM); with Bacillus subtilis, 0.156 µg/mL (≈ 0.376 µM); in the experiment with Shigella flexneri it was 0.313 µg/mL (≈ 0.754 µM); in the experiment on Escherichia coli, 0.313 µg/mL (≈ 0.754 µM). In addition, the “inhibition zone (IZ)” value in the experiment on Aspergillus niger came to 1.6 mm; in the experiment on Aspergillus flavus, 2.1 mm. For the same compound, on Urease, the Ki was 440 nM. The inhibition entry in the experiment with Aspergillus is “inactive”.
Regarding `NS(=O)(=O)c1ccc(NC(=S)NC(=O)c2ccc(Cl)cc2[N+](=O)[O-])cc1`, the minimal inhibitory concentration (MIC) in the experiment on Staphylococcus aureus, in the experiment with Bacillus subtilis, in the experiment on Shigella flexneri and in the experiment with Escherichia coli was 0.156 µg/mL (≈ 0.376 µM) throughout. The Ki at Urease came out at 5590 nM.
